Patent publication US20230341404A1, “TARGETING STROMA-CANCER INTERACTIONS IN CANCER” (The Regents of the University of California, priority 2022, published 2023)

Key:
KPC cells [1] = experiment: macropinocytosis and mitochondria in KPC cells on ECM from Ilomastat-treated fibroblasts; assay type: cell-based, mouse; settings: ECM from Ilomastat-treated wild-type fibroblasts, LG medium, 24 h
Procedure: FIGS. 12A-12M: Inhibition of Col I cleavage shuts down NRF2-driven macropinocytosis and mitochondrial biogenesis. FIG. 12A, MP and mitochondria in KPC cells plated on indicated ECM and incubated in LG for 24 h. Col IIB in indicated ECM preparations is shown on the right. FIG. 12B, IB of indicated proteins in above cells. FIG. 12C, MP and mitochondria in indicated KPC cells plated on R/R Col I^Δ ECM and incubated in LG for 24 h. FIG. 12D, LB of indicated proteins in 1305 cells plated on ECM produced by bacterial collagenase (CLG, 50 μg/ml) treated or untreated fibroblasts and incubated in LG medium −/+CLG for 24 h. FIG. 12E, Genes differentially expressed between KPC cells plated on indicated ECM. Light gray: replicates with low expression (z-score=−2); dark gray: replicates with high expression (z-score=+2). […] Quantitation on the right. […] Statistical significance determined by two-tailed t-test. ***P<0.001, ****P<0.0001. […]
Cells were cultured on coverslips coated with or without ECM and fixed in 4% paraformaldehyde for 10 min at room temperature or methanol for 10 min at —20° C. […] Images were captured and analysed using a TCS SPE Leica confocal microscope with Leica Application Suite AF 2.6.0.7266 software (Leica).
Macropinosomes or mitochondria were quantified by using the ‘Analyze Particles’ feature in Image J (NIH). […] Kaplan—Meier survival curves were analysed by log-rank test. […]

KPC cells [2] = experiment: cell viability with tigecycline; assay type: cell-based, mouse; settings: parental cells on wild-type ECM versus R/R ECM or DDR1^KD cells on wild-type ECM, LG medium
Procedure: (§1) FIGS. 14A-14J: Effect of macropinocytosis and mitochondria on Col I-controlled PDAC cell growth. FIG. 14A, Bromodeoxyuridine (BrdU) incorporation into KPC cells plated on ECM mixtures produced by R/R and WT fibroblasts (R:W). Scale bars, 10 μm. FIG. 14B, FIG. 14C, Paren. and IKKα^KD KPC (FIG. 14B) or KC (FIG. 14C) cells were plated −/+ WT or R/R ECM and incubated in LG −/+ indicated reagents. Viable cells were measured after 3 days and depicted relative to untreated plastic-plated Paren. cells. (FIG. 14C). IKKα KD efficiency is shown on the right (FIG. 14B). […] Total viable cells were measured as above and are presented relative to the untreated cells. FIG. 14H, Mitochondrial ATP production calculated from FIG. 6B. […] Quantification of the SR positive area is shown on the left. […] Statistical significance determined by two-tailed t-test. […]
(§2) Cells were plated in 96-well plates coated with or without ECM at a density of 3,000 cells (MIA, 1305) or 1,500 cells (KPC or KC) per well and incubated overnight before treatment. […] Cell viability was determined with a Cell Counting Kit-8 assay (Glpbio). Optical density was read at 450 nm and analysed using a microplate reader with SoftMax 6.5 software (FilterMax F5, Molecular Devices). […]

1305 cells = experiment: cell viability with tigecycline; assay type: cell-based, human; settings: parental cells on wild-type ECM versus R/R ECM or DDR1^KD cells on wild-type ECM, LG medium, 24 h
Procedure: as §1, §2

SMILES	behaviour of ECM from treated fibroblasts (macropinocytosis, mitochondria) (KPC cells [1])	sensitivity to tigecycline (viable cells) (KPC cells [2])	sensitivity to tigecycline (viable cells) (1305 cells)
CNC(=O)[C@H](Cc1c[nH]c2ccccc12)NC(=O)[C@@H](CC(=O)NO)CC(C)C [Ilomastat]	behaved like R/R ECM	–	–
CN(C)c1cc(NC(=O)CNC(C)(C)C)c(O)c2c1C[C@H]1C[C@H]3[C@H](N(C)C)C(O)=C(C(N)=O)C(=O)[C@@]3(O)C(O)=C1C2=O [tigecycline]	–	more sensitive	more sensitive
